Data on one molecule can be found in patent US20250302080A1, “SWEETNESS AND/OR FLAVOR ENHANCER” (AJINOMOTO CO., INC., priority 2022, published 2025).

Assay [1] in a line: Sensory evaluation of sweetness intensity in sucralose solution (Experimental Examples 23-24). To be noted: sucralose solution; added alone; 3.0 points or more. The protocol:
A negative control sucralose solution (0.0140 wt % sucralose solution) was prepared by dissolving sucralose in filtered water.
(§1) A sensory evaluation of sweetness intensity was performed for each sample by a panel of four experts according to the following evaluation criteria.
Sweetness intensity was evaluated by 0.0 to 10.0 point based on the following reference samples (negative control (hereinafter referred to as NC) (0.0 point); reference 1 (hereinafter referred to as R1) (3.0 points), reference 2 (hereinafter referred to as R2) (5.0 points); reference 3 (hereinafter referred to as R3) (10.0 points)). The average score (rounded to two decimal places) of each expert panelist was calculated. An average score of 3.0 points or more was considered to be functional. • NC (0.0 point): 0.0140 wt % sucralose solution (solvent: filtered water) • R1 (3.0 points): 0.0164 wt % sucralose solution (solvent: filtered water) • R2 (5.0 points): 0.0180 wt % sucralose solution (solvent: filtered water) • R3 (10.0 points): 0.0220 wt % sucralose solution (solvent: filtered water)
A sensory evaluation of sweetness intensity was performed for each sample by a panel of four experts according to the same evaluation criteria as in Experimental Example 23.

Assay [2] is described as follows: Sensory evaluation of sweetness intensity in sucrose solution (Experimental Examples 25-27). The settings on record: added alone, 3.0 points or more. The protocol: A negative control sucrose solution (0.7 wt % sucrose solution) was prepared by dissolving sucrose in filtered water.
as §1
Sweetness intensity was evaluated by 0.0 to 10.0 points based on the following reference samples (negative control (hereinafter referred to as NC) (0.0 point); reference 1 (hereinafter referred to as R1) (3.0 points), reference 2 (hereinafter referred to as R2) (5.0 points); reference 3 (hereinafter referred to as R3) (10.0 points)). The average score (rounded to two decimal places) of each expert panelist was calculated. An average score of 3.0 points or more was considered to be functional. • NC (0.0 point): 7.0 wt % sucrose solution (solvent: filtered water) • R1 (3.0 points): 7.3 wt % sucrose solution (solvent: filtered water) • R2 (5.0 points): 7.5 wt % sucrose solution (solvent: filtered water) • R3 (10.0 points): 8.0 wt % sucrose solution (solvent: filtered water)
A sensory evaluation of sweetness intensity was performed for each sample by a panel of four experts according to the same evaluation criteria as in Experimental Example 25.

In the case of `CCCCCCCCCC(=O)O` [decanoic acid], the “concentration at which a sweetness-enhancing effect was confirmed” value in assay [1] and in assay [2] was 10 ppb each time.
